For 14 compounds, IC50 results are on record in US20260355212A1 (priority 2022, published 2026).

Where two headings read alike, the source gives them in different places.

Broadly, the IC50 is the concentration at which inhibition is half-maximal.

One experiment deals with HCoV-HKU1 Mpro (Human coronavirus HKU1, UniProt P0C6X2). Briefly: HCoV-HKU1 Mpro enzymatic inhibition assay (fluorescence). The experiment is classed as biochemical. In outline: (§1)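 E. coli-expressed Mpro + cpd, 30 min RT preinc; add fluorogenic substrate, 60 min 30 °C; read Ex/Em 340/490 nm. % inhibition vs DMSO and GC376 controls, corrected with no-enzyme compound blanks; IC50 by 4-parameter logistic fit.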
Sequence of HCoV-HKU1 Mpro (P0C6X2 3335-3637 limits assumed): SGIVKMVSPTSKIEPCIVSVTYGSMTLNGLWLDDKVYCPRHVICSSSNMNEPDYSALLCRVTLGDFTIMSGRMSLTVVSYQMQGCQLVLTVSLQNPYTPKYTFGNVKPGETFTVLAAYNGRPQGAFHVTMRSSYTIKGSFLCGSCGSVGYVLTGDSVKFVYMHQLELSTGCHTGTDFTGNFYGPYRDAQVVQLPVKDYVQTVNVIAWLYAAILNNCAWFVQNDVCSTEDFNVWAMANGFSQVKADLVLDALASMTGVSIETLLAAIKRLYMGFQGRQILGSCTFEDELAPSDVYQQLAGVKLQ

The next experiment concerns the target MERS Mpro (Middle East respiratory syndrome-related coronavirus, UniProt K9N7C7). Description: biochemical. Also noted: species or system MERS-CoV.
The next experiment deals with HCoV-229E Mpro (Human coronavirus 229E, UniProt P0C6X1). Description: HCoV-229E Mpro enzymatic inhibition assay (fluorescence). The format is biochemical.
Sequence of HCoV-229E Mpro (P0C6X1 2966-3267 limits assumed): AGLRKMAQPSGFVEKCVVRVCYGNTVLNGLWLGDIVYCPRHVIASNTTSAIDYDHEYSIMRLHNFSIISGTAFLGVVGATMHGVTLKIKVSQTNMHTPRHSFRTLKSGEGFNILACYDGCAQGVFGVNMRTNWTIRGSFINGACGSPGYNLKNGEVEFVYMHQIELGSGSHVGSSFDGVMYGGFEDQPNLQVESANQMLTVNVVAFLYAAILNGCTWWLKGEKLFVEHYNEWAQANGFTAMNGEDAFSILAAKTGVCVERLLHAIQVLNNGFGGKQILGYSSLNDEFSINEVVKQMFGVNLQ
The target of a further experiment is SARS-CoV-1 Mpro (Severe acute respiratory syndrome coronavirus, UniProt P0C6X7). Description: biochemical.
The next experiment deals with HCoV-OC43 Mpro (Human coronavirus OC43, UniProt P0C6X6). Description: HCoV-OC43 Mpro enzymatic inhibition assay (fluorescence). The experiment is classed as biochemical. A digest of the protocol: as §1
Sequence of HCoV-OC43 Mpro (P0C6X6 3247-3549 limits assumed): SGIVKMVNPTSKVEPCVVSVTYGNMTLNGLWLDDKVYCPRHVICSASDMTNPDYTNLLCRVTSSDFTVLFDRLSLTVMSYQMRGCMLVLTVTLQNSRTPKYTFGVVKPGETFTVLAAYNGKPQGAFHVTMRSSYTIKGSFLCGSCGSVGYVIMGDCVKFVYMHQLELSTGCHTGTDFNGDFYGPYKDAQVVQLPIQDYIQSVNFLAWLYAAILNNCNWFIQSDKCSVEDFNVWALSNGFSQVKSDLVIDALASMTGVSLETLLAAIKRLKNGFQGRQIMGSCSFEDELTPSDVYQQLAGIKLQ
The target of the next experiment is HCoV-NL63 Mpro (Human coronavirus NL63, UniProt P0C6X5). Description: HCoV-NL63 Mpro enzymatic inhibition assay (fluorescence). The experiment is classed as biochemical. A digest of the protocol:
as §1

A further experiment deals with SARS-CoV-2 Mpro (Severe acute respiratory syndrome coronavirus 2, UniProt P0DTD1). Briefly: SARS-CoV-2 Mpro enzymatic inhibition assay (fluorescence). The format is biochemical. In outline: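 Recombinant Mpro expressed in E. coli was preincubated 30 min at room temperature with 10-point, 3-fold serially diluted compound in duplicate. Fluorogenic substrate was then added and incubated 60 min at 30° C, and fluorescence read at Ex/Em 340/490 nm. IC50 came from a four-parameter fit of % inhibition.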

Setting [1] is: mean, 25 nM protein, 25 μM substrate, 30 min pre-incubation, 60 min at 30° C., read-out: Mpro_SARS-CoV-2 mean IC50.

Sequence of HCoV-NL63 Mpro (P0C6X5 2940-3242 limits assumed): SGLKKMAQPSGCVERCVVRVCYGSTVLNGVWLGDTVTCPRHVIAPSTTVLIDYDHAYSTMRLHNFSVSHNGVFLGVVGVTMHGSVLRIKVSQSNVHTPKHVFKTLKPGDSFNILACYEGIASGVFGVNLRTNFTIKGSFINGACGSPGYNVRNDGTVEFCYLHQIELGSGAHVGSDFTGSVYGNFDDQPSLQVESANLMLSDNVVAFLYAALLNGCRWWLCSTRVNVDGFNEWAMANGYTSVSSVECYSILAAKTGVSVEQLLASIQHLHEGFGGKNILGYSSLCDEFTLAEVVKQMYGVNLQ
Sequence of MERS Mpro (K9N7C7 3248-3553 limits assumed): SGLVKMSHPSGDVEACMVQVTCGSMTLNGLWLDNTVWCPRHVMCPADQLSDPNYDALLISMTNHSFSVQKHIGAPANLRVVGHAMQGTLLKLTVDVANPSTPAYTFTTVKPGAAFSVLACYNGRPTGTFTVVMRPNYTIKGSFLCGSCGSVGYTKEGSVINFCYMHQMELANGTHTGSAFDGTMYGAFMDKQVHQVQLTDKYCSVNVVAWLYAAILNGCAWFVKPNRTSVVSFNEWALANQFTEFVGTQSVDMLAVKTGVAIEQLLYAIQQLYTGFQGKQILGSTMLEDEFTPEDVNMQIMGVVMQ

Take `CC1(C)[C@@H]2[C@@H](C(=O)N[C@H](C#N)C[C@@H]3CCNC3=O)N(C(=O)c3cc4c(F)ccc(Cl)c4[nH]3)C[C@@H]21` [Compound 128, (1R,2S,5S)-3-(7-Chloro-4-fluoro-1H-indole-2-carbonyl)-N—((S)-1-cyano-2-((S)-2-oxopyrrolidin-3-yl)ethyl)-6,6-dimethyl-3-azabicyclo[3.1.0]hexane-2-carboxamide]: the IC50 at HCoV-HKU1 Mpro worked out at 1900 nM; against MERS Mpro, 5580 nM; on HCoV-229E Mpro it was 1230 nM; on SARS-CoV-1 Mpro, 788 nM; at HCoV-OC43 Mpro, 1990 nM; on HCoV-NL63 Mpro, 3980 nM. For the same compound, the IC50 against SARS-CoV-2 Mpro was found to be 318 nM.
For the compound `CCc1cccc2[nH]c(C(=O)N3C[C@H]4[C@@H]([C@H]3C(=O)N[C@H](C=O)C[C@@H]3CCNC3=O)C4(C)C)cc12` [Compound 14, (1R,2S,5S)-3-(4-ethyl-1H-indole-2-carbonyl)-6,6-dimethyl-N—((S)-1-oxo-3-((S)-2-oxopyrrolidin-3-yl)propan-2-yl)-3-azabicyclo[3.1.0]hexane-2-carboxamide], the IC50 at HCoV-HKU1 Mpro amounted to 22.2 nM; against MERS Mpro it was 322 nM; against HCoV-229E Mpro it was 39.6 nM; against SARS-CoV-1 Mpro, 52 nM; against HCoV-OC43 Mpro, 39.4 nM; at HCoV-NL63 Mpro it was 49.3 nM. The same compound yielded an IC50 at SARS-CoV-2 Mpro of 14.5 nM.
Consider `CC1(C)[C@@H]2[C@@H](C(=O)N[C@H](C=O)C[C@@H]3CCNC3=O)N(C(=O)c3cc4c(Cl)cc(Cl)cc4[nH]3)C[C@@H]21` [Compound 97, (1R,2S,5S)-3-(4,6-Dichloro-1H-indole-2-carbonyl)-6,6-dimethyl-N—((S)-1-oxo-3-((S)-2-oxopyrrolidin-3-yl)propan-2-yl)-3-azabicyclo[3.1.0]hexane-2-carboxamide], for which the IC50 against HCoV-HKU1 Mpro was 27 nM; against MERS Mpro, 395 nM; against HCoV-229E Mpro it was 46 nM; at SARS-CoV-1 Mpro, 75.4 nM; against HCoV-OC43 Mpro, 72 nM; at HCoV-NL63 Mpro, 88.9 nM. At SARS-CoV-2 Mpro, this compound returned an IC50 of 49.9 nM.
For the compound `CC1(C)[C@@H]2[C@@H](C(=O)N[C@H](C=O)C[C@@H]3CCNC3=O)N(C(=O)c3cc4c(C#N)cccc4[nH]3)C[C@@H]21` [Compound 59, (1R,2S,5S)-3-(4-Cyano-1H-indole-2-carbonyl)-6,6-dimethyl-N—((S)-1-oxo-3-((S)-2-oxopyrrolidin-3-yl)propan-2-yl)-3-azabicyclo[3.1.0]hexane-2-carboxamide], the IC50 was found to be 22.9 nM at HCoV-HKU1 Mpro; 230 nM at MERS Mpro; 42.6 nM at HCoV-229E Mpro; 83.4 nM at SARS-CoV-1 Mpro; 57.5 nM against HCoV-OC43 Mpro; 64.1 nM at HCoV-NL63 Mpro. Besides, the IC50 on SARS-CoV-2 Mpro (setting [1]) amounted to 26 nM.
For the compound `N#Cc1cccc2[nH]c(C(=O)N3CC4(CC4)C[C@H]3C(=O)N[C@H](C=O)C[C@@H]3CCNC3=O)cc12` [Compound 76, (S)-5-(4-Cyano-1H-indole-2-carbonyl)-N—((S)-1-oxo-3-((S)-2-oxopyrrolidin-3-yl)propan-2-yl)-5-azaspiro[2.4]heptane-6-carboxamide], the IC50 came to 13.1 nM against HCoV-HKU1 Mpro; 200 nM against MERS Mpro; 26.9 nM against HCoV-229E Mpro; 60.6 nM on SARS-CoV-1 Mpro; 30.1 nM at HCoV-OC43 Mpro; 33 nM against HCoV-NL63 Mpro. This compound registered an IC50 on SARS-CoV-2 Mpro of 32.7 nM.
Turning to `Cc1cccc2cc(C(=O)N3C[C@H]4[C@@H]([C@H]3C(=O)N[C@H](C=O)C[C@@H]3CCNC3=O)C4(C)C)[nH]c12` [Compound 33, (1R,2S,5S)-6,6-Dimethyl-3-(7-methyl-1H-indole-2-carbonyl)-N—((S)-1-oxo-3-((S)-2-oxopyrrolidin-3-yl)propan-2-yl)-3-azabicyclo[3.1.0]hexane-2-carboxamide], the IC50 was 37.9 nM against HCoV-HKU1 Mpro; 227 nM at MERS Mpro; 43.5 nM at HCoV-229E Mpro; 34 nM against SARS-CoV-1 Mpro; 83.2 nM against HCoV-OC43 Mpro; 78 nM at HCoV-NL63 Mpro. Moreover, the IC50 against SARS-CoV-2 Mpro was 19.7 nM.
On to `O=C[C@H](C[C@@H]1CCNC1=O)NC(=O)[C@@H]1CC2(CC2)CN1C(=O)c1cc2cccc(Cl)c2[nH]1` [Compound 2, (S)-5-(7-chloro-1H-indole-2-carbonyl)-N—((S)-1-oxo-3-((S)-2-oxopyrrolidin-3-yl)propan-2-yl)-5-azaspiro[2.4]heptane-6-carboxamide], for which the IC50 on HCoV-HKU1 Mpro turned out to be 10.4 nM; on MERS Mpro it was 199 nM; against HCoV-229E Mpro it was 32.6 nM; against SARS-CoV-1 Mpro it was 42.5 nM; at HCoV-OC43 Mpro, 38.2 nM; against HCoV-NL63 Mpro, 48.4 nM. In addition, 9.84 nM corresponded to half-maximal inhibition against SARS-CoV-2 Mpro (IC50).
Take `CC1(C)[C@@H]2[C@@H](C(=O)N[C@H](C=O)C[C@@H]3CCNC3=O)N(C(=O)c3cc4ccc(C#N)cc4[nH]3)C[C@@H]21` [Compound 74, (1R,2S,5S)-3-(6-Cyano-1H-indole-2-carbonyl)-6,6-dimethyl-N—((S)-1-oxo-3-((S)-2-oxopyrrolidin-3-yl)propan-2-yl)-3-azabicyclo[3.1.0]hexane-2-carboxamide]: the IC50 was 40.9 nM at HCoV-HKU1 Mpro; 479 nM against MERS Mpro; 55.3 nM against HCoV-229E Mpro; 61.4 nM at SARS-CoV-1 Mpro; 86.4 nM against HCoV-OC43 Mpro; 86.8 nM at HCoV-NL63 Mpro. For the same compound, on SARS-CoV-2 Mpro, inhibition was half-maximal at 32 nM (IC50).
Regarding `C[C@@H](C(=O)N1C[C@H]2[C@@H]([C@H]1C(=O)N[C@H](C=O)C[C@@H]1CCNC1=O)C2(C)C)c1ccccc1` [Compound 37, (1R,2S,5S)-6,6-dimethyl-N—((S)-1-oxo-3-((S)-2-oxopyrrolidin-3-yl)propan-2-yl)-3-((R)-2-phenylpropanoyl)-3-azabicyclo[3.1.0]hexane-2-carboxamide], the IC50 on HCoV-HKU1 Mpro stood at 36.4 nM; at MERS Mpro it was 242 nM; on HCoV-229E Mpro it was 45.6 nM; at SARS-CoV-1 Mpro, 40.4 nM; against HCoV-OC43 Mpro it was 36.7 nM; against HCoV-NL63 Mpro, 188 nM. It took 20.6 nM to reach half-maximal inhibition at SARS-CoV-2 Mpro (IC50).
Regarding `C[C@H](C(=O)N1C[C@H]2[C@@H]([C@H]1C(=O)N[C@H](C=O)C[C@@H]1CCNC1=O)C2(C)C)c1ccccc1` [Compound 104, (1R,2S,5S)-6,6-Dimethyl-N—((S)-1-oxo-3-((S)-2-oxopyrrolidin-3-yl)propan-2-yl)-3-((S)-2-phenylpropanoyl)-3-azabicyclo[3.1.0]hexane-2-carboxamide], the IC50 at HCoV-HKU1 Mpro stood at 109 nM; against MERS Mpro it was 684 nM; on HCoV-229E Mpro, 116 nM; against SARS-CoV-1 Mpro it was 114 nM; on HCoV-OC43 Mpro, 197 nM; against HCoV-NL63 Mpro, 861 nM. For the same compound, the IC50 on SARS-CoV-2 Mpro (setting [1]) was 65.1 nM.
For `COc1cccc2[nH]c(C(=O)N3CC4(CC4)C[C@H]3C(=O)N[C@H](C=O)C[C@@H]3CCNC3=O)cc12` [Compound 31, (S)-5-(4-Methoxy-1H-indole-2-carbonyl)-N—((S)-1-oxo-3-((S)-2-oxopyrrolidin-3-yl)propan-2-yl)-5-azaspiro[2.4]heptane-6-carboxamide], the IC50 at HCoV-HKU1 Mpro stood at 14.2 nM; against MERS Mpro it was 188 nM; at HCoV-229E Mpro it was 31.7 nM; at SARS-CoV-1 Mpro it was 34 nM; against HCoV-OC43 Mpro it was 22.2 nM; on HCoV-NL63 Mpro, 49.3 nM. On SARS-CoV-2 Mpro, this compound returned an IC50 of 18.9 nM.
`CC1(C)C[C@@H](C(=O)N[C@H](C=O)C[C@@H]2CCNC2=O)N(C(=O)c2cc3cccc(C#N)c3[nH]2)C1` [Compound 58, (S)-1-(7-Cyano-1H-indole-2-carbonyl)-4,4-dimethyl-N—((S)-1-oxo-3-((S)-2-oxopyrrolidin-3-yl)propan-2-yl)pyrrolidine-2-carboxamide]: the IC50 turned out to be 19 nM against HCoV-HKU1 Mpro; 338 nM against MERS Mpro; 28.5 nM against HCoV-229E Mpro; 62.8 nM on SARS-CoV-1 Mpro; 56.3 nM against HCoV-OC43 Mpro; 40.7 nM on HCoV-NL63 Mpro. Moreover, the IC50 against SARS-CoV-2 Mpro amounted to 25.8 nM.
On to `CC1(C)[C@@H]2[C@@H](C(=O)N[C@H](C=O)C[C@@H]3CCNC3=O)N(C(=O)c3cc4cccc(F)c4[nH]3)C[C@@H]21` [Compound 6, (1R,2S,5S)-3-(7-fluoro-1H-indole-2-carbonyl)-6,6-dimethyl-N—((S)-1-oxo-3-((S)-2-oxopyrrolidin-3-yl)propan-2-yl)-3-azabicyclo[3.1.0]hexane-2-carboxamide], for which the IC50 at HCoV-HKU1 Mpro amounted to 25.1 nM; at MERS Mpro, 168 nM; against HCoV-229E Mpro, 31.1 nM; against SARS-CoV-1 Mpro, 19.5 nM; against HCoV-OC43 Mpro, 38.8 nM; against HCoV-NL63 Mpro, 38.3 nM. For the same compound, the IC50 against SARS-CoV-2 Mpro is 10.8 nM.
`Cc1cccc2[nH]c(C(=O)N3C[C@H]4[C@@H]([C@H]3C(=O)N[C@H](C=O)C[C@@H]3CCNC3=O)C4(C)C)cc12` [Compound 85, (1R,2S,5S)-6,6-Dimethyl-3-(4-methyl-1H-indole-2-carbonyl)-N—((S)-1-oxo-3-((S)-2-oxopyrrolidin-3-yl)propan-2-yl)-3-azabicyclo[3.1.0]hexane-2-carboxamide]: the IC50 turned out to be 23.2 nM against HCoV-HKU1 Mpro; 259 nM on MERS Mpro; 34.6 nM at HCoV-229E Mpro; 48.2 nM on SARS-CoV-1 Mpro; 47.9 nM at HCoV-OC43 Mpro; 53.2 nM on HCoV-NL63 Mpro. Also, the IC50 at SARS-CoV-2 Mpro (setting [1]) came to 36.7 nM.
